# According to publication PMC11277489, “Novel Piperazine Derivatives of Vindoline as Anticancer Agents” (International Journal of Molecular Sciences, 2024):
# Where two headings read alike, the source gives them in different places.
# Legend:
# Type in all cases: cell-based
# HOP-62 = assay: NCI60 five-dose screen, Non-small Cell Lung Cancer; details: Homo sapiens; HOP-62, Non-small Cell Lung Cancer; five-dose screen; read-out: GI50
# EKVX = assay: NCI60 five-dose screen, Non-small Cell Lung Cancer; details: Homo sapiens, Non-small Cell Lung Cancer, five-dose screen, read-out: GI50
# UACC-62 = assay: NCI60 five-dose screen, Melanoma; details: Homo sapiens; UACC-62, Melanoma; five-dose screen; read-out: GI50
# NCI-H226 = assay: NCI60 five-dose screen, Non-small Cell Lung Cancer; details: Homo sapiens; NCI-H226, Non-small Cell Lung Cancer; five-dose screen; read-out: GI50
# SF-539 = assay: NCI60 five-dose screen, CNS Cancer; details: Homo sapiens; SF-539, CNS Cancer; five-dose screen; read-out: GI50
# HOP-92 = assay: NCI60 five-dose screen, Non-small Cell Lung Cancer; details: Homo sapiens; HOP-92, Non-small Cell Lung Cancer; five-dose screen; read-out: GI50
# LOX IMVI = assay: NCI60 five-dose screen, Melanoma; details: Homo sapiens, Melanoma, five-dose screen, read-out: GI50
# MDA-MB-435 = assay: NCI60 five-dose screen, Melanoma; details: Homo sapiens; MDA-MB-435, Melanoma; five-dose screen; read-out: GI50
# HL-60(TB) = assay: NCI60 five-dose screen, Leukemia; details: Homo sapiens; HL-60(TB), Leukemia; five-dose screen; read-out: GI50
# CAKI-1 = assay: NCI60 five-dose screen, Renal Cancer; details: Homo sapiens; CAKI-1, Renal Cancer; five-dose screen; read-out: GI50
# MDA-MB-468 = assay: NCI60 five-dose screen, Breast Cancer; details: Homo sapiens; MDA-MB-468, Breast Cancer; five-dose screen; read-out: GI50
# SF-295 = assay: NCI60 five-dose screen, CNS Cancer; details: Homo sapiens; SF-295, CNS Cancer; five-dose screen; read-out: GI50
# T-47D = assay: NCI60 five-dose screen, Breast Cancer; details: Homo sapiens, T47D; T-47D, Breast Cancer; five-dose screen; read-out: GI50
# SF-268 = assay: NCI60 five-dose screen, CNS Cancer; details: Homo sapiens; SF-268, CNS Cancer; five-dose screen; read-out: GI50
# M14 = assay: NCI60 five-dose screen, Melanoma; details: Homo sapiens; M14, Melanoma; five-dose screen; read-out: GI50
# K-562 = assay: NCI60 five-dose screen, Leukemia; details: Homo sapiens, K562; K-562, Leukemia; five-dose screen; read-out: GI50
# RPMI-8226 = assay: NCI60 five-dose screen, Leukemia; details: Homo sapiens; RPMI-8226, Leukemia; five-dose screen; read-out: GI50
# COLO 205 = assay: NCI60 five-dose screen, Colon Cancer; details: Homo sapiens; COLO 205, Colon Cancer; five-dose screen; read-out: GI50
# SK-MEL-5 = assay: NCI60 five-dose screen, Melanoma; details: Homo sapiens; SK-MEL-5, Melanoma; five-dose screen; read-out: GI50
# DU-145 = assay: NCI60 five-dose screen, Prostate Cancer; details: Homo sapiens; DU-145, Prostate Cancer; five-dose screen; read-out: GI50
# U251 = assay: NCI60 five-dose screen, CNS Cancer; details: Homo sapiens, U-251; U251, CNS Cancer; five-dose screen; read-out: GI50
# HT29 = assay: NCI60 five-dose screen, Colon Cancer; details: Homo sapiens, HT-29; HT29, Colon Cancer; five-dose screen; read-out: GI50
# HCT-116 = assay: NCI60 five-dose screen, Colon Cancer; details: Homo sapiens; HCT-116, Colon Cancer; five-dose screen; read-out: GI50
# SK-OV-3 = assay: NCI60 five-dose screen, Ovarian Cancer; details: Homo sapiens; SK-OV-3, Ovarian Cancer; five-dose screen; read-out: GI50
# NCI-H23 = assay: NCI60 five-dose screen, Non-small Cell Lung Cancer; details: Homo sapiens; NCI-H23, Non-small Cell Lung Cancer; five-dose screen; read-out: GI50
# BT-549 = assay: NCI60 five-dose screen, Breast Cancer; details: Homo sapiens; BT-549, Breast Cancer; five-dose screen; read-out: GI50
# SK-MEL-2 = assay: NCI60 five-dose screen, Melanoma; details: Homo sapiens; SK-MEL-2, Melanoma; five-dose screen; read-out: GI50
# [1] = system: 60 human tumor cell lines (NCI60); assay: NCI60 five-dose screen, whole panel and sub-panel means; details: Homo sapiens
# HCT-15 = assay: NCI60 five-dose screen, Colon Cancer; details: Homo sapiens; HCT-15, Colon Cancer; five-dose screen; read-out: GI50
# SNB-19 = assay: NCI60 five-dose screen, CNS Cancer; details: Homo sapiens; SNB-19, CNS Cancer; five-dose screen; read-out: GI50
# OVCAR-8 = assay: NCI60 five-dose screen, Ovarian Cancer; details: Homo sapiens; OVCAR-8, Ovarian Cancer; five-dose screen; read-out: GI50
# A498 = assay: NCI60 five-dose screen, Renal Cancer; details: Homo sapiens; A498, Renal Cancer; five-dose screen; read-out: GI50
# RXF 393 = assay: NCI60 five-dose screen, Renal Cancer; details: Homo sapiens, RXF 393, Renal Cancer
# SK-MEL-28 = assay: NCI60 five-dose screen, Melanoma; details: Homo sapiens; SK-MEL-28, Melanoma; five-dose screen; read-out: GI50
# [2] = 60 cell, mean over all 60 cell lines, read-out: GI50 Mean
# [3] = mean over Breast Cancer panel, read-out: GI50 Mean
# [4] = mean over CNS Cancer panel, read-out: GI50 Mean
# [5] = mean over Colon Cancer panel, read-out: GI50 Mean
# [6] = mean over Leukemia panel, read-out: GI50 Mean
# [7] = mean over Melanoma panel, read-out: GI50 Mean
# [8] = mean over Non-small Cell Lung Cancer panel, read-out: GI50 Mean
# [9] = mean over Ovarian Cancer panel, read-out: GI50 Mean
# [10] = mean over Prostate Cancer panel, read-out: GI50 Mean
# [11] = mean over Renal Cancer panel, read-out: GI50 Mean
structure (smiles),measurement,setting,value
CCC12C=CCN3CCC4(c5cc(NC(=O)CN6CCN(C(c7ccc(F)cc7)c7ccc(F)cc7)CC6)c(OC)cc5N(C)C4C(O)(C(=O)OC)C1OC(C)=O)C32 (stereo not drawn) [Compound 20],GI50,HOP-62,89.1 µM
same,GI50,EKVX,4.07 µM
same,GI50,UACC-62,8.13 µM
same,GI50,NCI-H226,6.31 µM
same,GI50,SF-539,4.07 µM
same,GI50,HOP-92,5.01 µM
same,GI50,LOX IMVI,3.24 µM
same,GI50,MDA-MB-435,3.89 µM
same,GI50,HL-60(TB),2.19 µM
same,GI50,CAKI-1,3.16 µM
same,GI50,MDA-MB-468,3.02 µM
same,GI50,SF-295,3.47 µM
same,GI50,T-47D,3.55 µM
same,GI50,SF-268,5.13 µM
same,GI50,M14,4.07 µM
same,GI50,K-562,3.16 µM
same,GI50,RPMI-8226,1.91 µM
same,GI50,COLO 205,2.45 µM
same,GI50,SK-MEL-5,2.34 µM
same,GI50,DU-145,6.31 µM
same,GI50,U251,6.03 µM
same,GI50,HT29,2.88 µM
same,GI50,HCT-116,3.09 µM
same,GI50,SK-OV-3,5.89 µM
same,GI50,NCI-H23,6.76 µM
same,GI50,BT-549,2.57 µM
same,GI50,SK-MEL-2,3.02 µM
same,GI50,[1]; [2],6.27 µM
same,GI50,[1]; [3],4.52 µM
same,GI50,[1]; [4],4.4 µM
same,GI50,[1]; [5],3.4 µM
same,GI50,[1]; [6],2.38 µM
same,GI50,[1]; [7],5.6 µM
same,GI50,[1]; [8],15.7 µM
same,GI50,[1]; [9],5.3 µM
same,GI50,[1]; [10],5.39 µM
same,GI50,[1]; [11],5.23 µM
same,GI50,HCT-15,3.55 µM
same,GI50,SNB-19,5.89 µM
same,GI50,OVCAR-8,7.59 µM
same,GI50,A498,5.62 µM
same,GI50,RXF 393,2.69 µM
same,GI50,SK-MEL-28,12.3 µM
CC[C@]12C=CCN3CC[C@@]4(c5ccc(OC)cc5N(C)[C@H]4[C@@](O)(C(=O)OC)[C@@H]1OC(=O)CCCN1CCN(Cc4ccc(C(F)(F)F)cc4)CC1)[C@@H]32 [Compound 23],GI50,HOP-62,1.74 µM
same,GI50,EKVX,1.7 µM
same,GI50,UACC-62,1.66 µM
same,GI50,NCI-H226,2.04 µM
same,GI50,SF-539,1.58 µM
same,GI50,HOP-92,1.51 µM
same,GI50,LOX IMVI,1.78 µM
same,GI50,MDA-MB-435,1.48 µM
same,GI50,HL-60(TB),1.74 µM
same,GI50,CAKI-1,1.48 µM
same,GI50,MDA-MB-468,1 µM
same,GI50,SF-295,1.78 µM
same,GI50,T-47D,1.74 µM
same,GI50,SF-268,1.35 µM
same,GI50,M14,1.55 µM
same,GI50,K-562,1.7 µM
same,GI50,RPMI-8226,2 µM
same,GI50,COLO 205,1.58 µM
same,GI50,SK-MEL-5,1.35 µM
same,GI50,DU-145,1.58 µM
same,GI50,U251,1.66 µM
same,GI50,HT29,1.66 µM
same,GI50,HCT-116,1.7 µM
same,GI50,SK-OV-3,2 µM
same,GI50,NCI-H23,1.91 µM
same,GI50,BT-549,1.66 µM
same,GI50,SK-MEL-2,1.78 µM
same,GI50,[1]; [2],1.65 µM
same,GI50,[1]; [3],1.53 µM
same,GI50,[1]; [4],1.57 µM
same,GI50,[1]; [5],1.64 µM
same,GI50,[1]; [6],1.71 µM
same,GI50,[1]; [7],1.62 µM
same,GI50,[1]; [8],1.8 µM
same,GI50,[1]; [9],1.77 µM
same,GI50,[1]; [10],1.58 µM
same,GI50,[1]; [11],1.63 µM
same,GI50,"[1]; on almost all cell lines, five-dose screen, read-out: GI50",< 2 µM
same,GI50,HCT-15,1.74 µM
same,GI50,SNB-19,1.58 µM
same,GI50,OVCAR-8,1.82 µM
same,GI50,A498,1.62 µM
same,GI50,RXF 393,1.35 µM
same,GI50,SK-MEL-28,1.62 µM
